Results as given in patent publication US20190252037A1 (priority 2016, published 2019).

Experiments:
[1] = target: FluB polymerase; assay type: binding, human influenza B/Memphis/13/03
[2] = target: bat FluA polymerase-vRNA promoter complex; assay type: binding
[3] = tested on: bat FluA polymerase; assay type: binding

With “Pol II CTD peptide, four heptad repeats Tyr-Ser-Pro-Thr-SerP-Pro-Ser (28 amino acids), FAM-labelled at the N-terminal end for binding assays (Covalab) [28-mer SeP5 peptide]” the Kd [1] was 2900 nM, the Kd [2] was 900 nM and the “higher affinity for Ser5 phosphorylated compared to non-phosphorylated CTD repeats” value [2] was > 10 fold. For the same substance, the “binding in the absence of the vRNA promotor” value [3] was “independent of vRNA promoter binding”.
